Key:
Assay in all cases: 3' UTR reporter interaction score (median-centred robust z-score of log2 firefly/Renilla activity); higher = less repression of the 3' UTR reporter
Settings in all cases: HEK293T; 48 h
[1] = system: BRCA2
In short: (§1)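 Firefly and Renilla luciferase activities were read 48 h post-transfection in HEK293T cells (10,000/well, 96-well plates). The cells had received 100 ng firefly luc2P reporter bearing the gene's 3' UTR, 20 ng Renilla pRL-TK control and 2.5 pmol miRNA mimic via DharmaFECT Duo. The interaction score, where more negative means interaction, is a per-plate robust z-score (median, median absolute deviation) of the log firefly/Renilla ratio, median-centred per miRNA and averaged over at least two independent screens.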

[2] = system: EZH2
In short: as §1

[3] = system: FBXW7
In short: as §1

[4] = system: HRAS
In short: as §1

[5] = system: MYB
In short: as §1

[6] = system: MYCN
In short: as §1

[7] = system: MYC
In short: as §1

[8] = system: MYT1L
In short: as §1

[9] = system: NOTCH1
In short: as §1

[10] = system: PHF6
In short: as §1

[11] = system: PHOX2B
In short: as §1

[12] = system: RB1
In short: as §1

[13] = system: TP53
In short: as §1

[14] = system: ZEB2
In short: as §1

| Sequence | 3' UTR reporter interaction score [1] | 3' UTR reporter interaction score [2] | 3' UTR reporter interaction score [3] | 3' UTR reporter interaction score [4] | 3' UTR reporter interaction score [5] | 3' UTR reporter interaction score [6] | 3' UTR reporter interaction score [7] | 3' UTR reporter interaction score [8] | 3' UTR reporter interaction score [9] | 3' UTR reporter interaction score [10] | 3' UTR reporter interaction score [11] | 3' UTR reporter interaction score [12] | 3' UTR reporter interaction score [13] | 3' UTR reporter interaction score [14] |
| --- | --- | --- | --- | --- | --- | --- | --- | --- | --- | --- | --- | --- | --- | --- |
| UGGUCUAGGAUUGUUGGAGGAG | 0.659 | 1.07 | -0.0822 | 1.1 | 0.332 | 0.689 | 0.131 | -1.45 | -3.72 | -1.9 | -0.574 | -0.907 | 0.772 | -1.89 |
| UGGUGCGGAGAGGGCCCACAGUG | -0.582 | -0.738 | 0.508 | -0.688 | -0.475 | 0.131 | -0.919 | 1.6 | 0.612 | 0.575 | 0.217 | 0.451 | -0.894 | 0.607 |
| UGGUGGGCCGCAGAACAUGUGC | -0.495 | -0.375 | 1.65 | -0.926 | -0.29 | 0.848 | 0.0166 | 1.92 | -1.38 | -0.487 | 0.685 | -1.35 | 0.539 | 0.648 |
| UGGUUCUAGACUUGCCAACUA | -1.9 | 0.495 | 0.0613 | 0.292 | 0.383 | 0.807 | 0.238 | -0.905 | -0.954 | 0.0797 | -0.729 | 0.0711 | -0.646 | 1.08 |
| UGGUUGACCAUAGAACAUGCGC | -0.794 | -1.23 | -0.743 | -0.568 | 2.68 | 1.49 | -0.769 | 3.19 | 2.11 | 0.184 | 1.74 | 3.51 | -0.14 | 2.61 |
| UGGUUUACCGUCCCACAUACAU | -0.68 | 0.684 | 0.14 | -0.0846 | 0.643 | 0.327 | -0.285 | 1.3 | -0.0746 | -0.512 | 0.385 | 0.158 | -0.635 | 1.07 |
| UGUAAACAUCCCCGACUGGAAG | -0.00428 | 0.0787 | 0.0307 | 0.945 | 0.447 | -1 | -0.345 | 0.873 | -0.121 | 0.331 | 0.775 | 1.18 | -0.339 | -1.09 |
| UGUAAACAUCCUACACUCAGCU | 0.276 | 0.233 | 0.842 | 1.01 | 0.789 | -0.781 | -0.616 | 0.998 | -0.804 | -1.63 | -0.561 | 0.456 | -0.377 | -1.14 |
| UGUAAACAUCCUACACUCUCAGC | 0.774 | -0.7 | 0.711 | 0.698 | 0.661 | -0.445 | -0.915 | 0.183 | -1.62 | 0.545 | 0.58 | 0.235 | 0.239 | -2.01 |
| UGUAGUGUUUCCUACUUUAUGGA | -3.32 | 0.133 | -0.472 | 0.941 | 0.85 | 1.22 | 0.753 | 1.44 | -0.00364 | -0.93 | 0.885 | -0.511 | -0.138 | -2.54 |
| UGUCACUCGGCUCGGCCCACUAC | 1.08 | 0.621 | 0.218 | -0.561 | 0.0813 | 0.184 | -0.146 | 0.664 | 0.551 | -0.284 | -0.663 | -0.766 | 0.457 | -1.79 |
| UGUCAGUUUGUCAAAUACCCC | -0.428 | -0.235 | -3.7 | 0.221 | 0.7 | 0.673 | 0.119 | 0.484 | 0.533 | -0.327 | 1.35 | 0.229 | -1.17 | 1.58 |
| UGUCUGCCCGCAUGCCUGCCUCU | 0.911 | 1.24 | 0.234 | -2.78 | -1.11 | -1.48 | -0.223 | 0.694 | -0.629 | 1.55 | -1.69 | 0.711 | -0.199 | -0.366 |
| UGUCUUGCAGGCCGUCAUGCA | -0.496 | -0.168 | 0.883 | 1.07 | -0.711 | -0.456 | 0.266 | 0.257 | 0.776 | -0.169 | 0.814 | 1.34 | -1.21 | -2.19 |
| UGUGACAGAUUGAUAACUGAAA | -1.43 | 0.213 | -0.255 | -0.136 | 0.185 | 0.0393 | 0.173 | -1.77 | 1.11 | -0.291 | 1.05 | 0.581 | 0.555 | 0.919 |
| UGUGACUGGUUGACCAGAGGG | 0.687 | 0.91 | -1.25 | -0.321 | -1.86 | -1.12 | 0.219 | -0.108 | 0.462 | 0.602 | 0.929 | -1.22 | 0.803 | 1.2 |
| UGUGCAAAUCCAUGCAAAACUGA | -0.438 | 0.306 | 0.561 | -1.63 | -1.86 | -3.09 | 0.638 | -0.216 | -0.355 | 0.456 | -0.753 | 0.608 | 0.0709 | -2.12 |

Source: the supplement of paper PMC5844555
